Structures can show the parent of a compound that is named as a salt.
Target: T1, bovine lactoferrin (bLf) (Bos taurus, UniProt P24627)
T1 construct: gene LTF; 80 kDa; single polypeptide chain
Experiment: microscale thermophoresis
Format: binding

T1 sequence (P24627 20-708): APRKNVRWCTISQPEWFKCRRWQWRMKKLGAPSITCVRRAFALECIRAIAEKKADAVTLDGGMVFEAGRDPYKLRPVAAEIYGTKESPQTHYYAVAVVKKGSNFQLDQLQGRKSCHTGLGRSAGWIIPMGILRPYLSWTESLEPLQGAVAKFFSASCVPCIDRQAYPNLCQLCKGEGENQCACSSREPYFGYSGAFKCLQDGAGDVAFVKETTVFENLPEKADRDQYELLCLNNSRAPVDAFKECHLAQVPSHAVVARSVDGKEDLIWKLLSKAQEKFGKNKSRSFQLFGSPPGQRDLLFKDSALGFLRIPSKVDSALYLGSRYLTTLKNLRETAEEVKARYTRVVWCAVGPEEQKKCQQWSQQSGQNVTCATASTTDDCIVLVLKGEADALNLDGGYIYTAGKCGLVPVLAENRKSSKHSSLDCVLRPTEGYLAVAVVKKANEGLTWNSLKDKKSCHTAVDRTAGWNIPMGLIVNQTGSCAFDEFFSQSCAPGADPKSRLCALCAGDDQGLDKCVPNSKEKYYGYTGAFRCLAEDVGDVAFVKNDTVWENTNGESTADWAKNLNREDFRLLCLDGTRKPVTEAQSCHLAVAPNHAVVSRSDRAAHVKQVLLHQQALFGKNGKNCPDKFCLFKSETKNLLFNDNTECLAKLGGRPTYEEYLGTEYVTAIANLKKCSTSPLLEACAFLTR

Work on `CN(C)[C@@H]1C(O)=C(C(N)=O)C(=O)[C@@]2(O)C(O)=C3C(=O)c4c(O)cccc4[C@@](C)(O)[C@H]3C[C@@H]12` [Tetracycline hydrochloride] yielded a Kd of 35.2 µM.

From paper PMC6222819, “Assessment of Binding Interaction between Bovine Lactoferrin and Tetracycline Hydrochloride: Multi-Spectroscopic Analyses and Molecular Modeling” (Molecules : A Journal of Synthetic Chemistry and Natural …, 2018)
